System: 883617-216-R-J1-PDC tumor spheroids, viability
Assay: Anticancer human tumor 883617-216-R-J1-PDC patient-derived bladder carcinoma cell line growth inhibition [PI3K]
Conditions: spheroids with HUVEC and MSC; for IC50: curve of first compound; for viability, T/C: stronger effect = lower value
Procedure, shortened: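 Complex 3D spheroids (cancer cells + endothelial HUVEC + mesenchymal stem cells); drug pairs of targeted agent x inavolisib/alpelisib/duvelisib/copanlisib; half-log series from ~Cmax, max 10 microM if Cmax unknown; endpoint viability.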

[1] = second compound 0.00316 µM, first compound 0.0316 µM
[2] = second compound 0.00316 µM, first compound 0.1 µM
[3] = second compound 0.01 µM, first compound 0.0316 µM
[4] = second compound 0.01 µM, first compound 0.1 µM
[5] = second compound 0.0316 µM, first compound 0.0316 µM
[6] = second compound 0.0316 µM, first compound 0.1 µM
[7] = second compound 0.1 µM, first compound 0.0316 µM
[8] = second compound 0.1 µM, first compound 0.1 µM
[9] = second compound 0.316 µM, first compound 0.0316 µM
[10] = second compound 0.316 µM, first compound 0.1 µM
[11] = second compound 1 µM, first compound 0.0316 µM
[12] = second compound 1 µM, first compound 0.1 µM
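Note: spheroids exposed to agents for 7 days before the viability read.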

Compound CC(C)n1nc(-c2ccc3oc(N)nc3c2)c2c(N)ncnc21 + COc1c(OCCCN2CCOCC2)ccc2c3n(c(=NC(=O)c4cnc(N)nc4)nc12)CCN3 has an IC50 (second compound 0.00316 µM) of 20.1 nM, an IC50 (second compound 0.01 µM) of 10.4 nM and an IC50 (second compound 0.0316 µM) of less than 0.316 nM. For the same compound, the IC50 (second compound 0.1 µM) was less than 0.316 nM, the IC50 (second compound 0.316 µM) was less than 0.316 nM and the IC50 (second compound 1 µM) was less than 0.316 nM. It also gave a viability, T/C (second compound 0.00316 µM, first compound 0.000316 µM) of 82.6%, a viability, T/C (second compound 0.00316 µM, first compound 0.001 µM) of 73.9% and a viability, T/C (second compound 0.00316 µM, first compound 0.00316 µM) of 79.2%. For the same compound, the viability, T/C (second compound 0.00316 µM, first compound 0.01 µM) was 63.6%, the viability, T/C [1] was 40.7% and the viability, T/C [2] was 17.4%. The viability, T/C (second compound 0.01 µM, first compound 0.000316 µM) was 64.9%, the viability, T/C (second compound 0.01 µM, first compound 0.001 µM) was 61.8% and the viability, T/C (second compound 0.01 µM, first compound 0.00316 µM) was 62.2%. The viability, T/C (second compound 0.01 µM, first compound 0.01 µM) was 49.2%, the viability, T/C [3] was 33.4% and the viability, T/C [4] was 14.4%. For the same compound, the viability, T/C (second compound 0.0316 µM, first compound 0.000316 µM) was 40.3%, the viability, T/C (second compound 0.0316 µM, first compound 0.001 µM) was 34.1% and the viability, T/C (second compound 0.0316 µM, first compound 0.00316 µM) was 34.9%. The viability, T/C (second compound 0.0316 µM, first compound 0.01 µM) was 28.6%, the viability, T/C [5] was 18.5% and the viability, T/C [6] was 11.5%. The viability, T/C (second compound 0.1 µM, first compound 0.000316 µM) was 14.7%, the viability, T/C (second compound 0.1 µM, first compound 0.001 µM) was 15.1% and the viability, T/C (second compound 0.1 µM, first compound 0.00316 µM) was 15.1%. The viability, T/C (second compound 0.1 µM, first compound 0.01 µM) was 13.2%, the viability, T/C [7] was 8.07% and the viability, T/C [8] was 4.79%. The viability, T/C (second compound 0.316 µM, first compound 0.000316 µM) was 5.33%, the viability, T/C (second compound 0.316 µM, first compound 0.001 µM) was 5.54% and the viability, T/C (second compound 0.316 µM, first compound 0.00316 µM) was 5.8%. The viability, T/C (second compound 0.316 µM, first compound 0.01 µM) was 5.35%, the viability, T/C [9] was 4.04% and the viability, T/C [10] was 3.54%. It also gave a viability, T/C (second compound 1 µM, first compound 0.000316 µM) of 2.62%, a viability, T/C (second compound 1 µM, first compound 0.001 µM) of 3.45% and a viability, T/C (second compound 1 µM, first compound 0.00316 µM) of 3.33%. It also gave a viability, T/C (second compound 1 µM, first compound 0.01 µM) of 3.45%, a viability, T/C [11] of 3.43% and a viability, T/C [12] of 2.69%.

Compound CC1(C)CCC(CN2CCN(c3ccc(C(=O)NS(=O)(=O)c4ccc(NCC5CCOCC5)c([N+](=O)[O-])c4)c(Oc4cnc5[nH]ccc5c4)c3)CC2)=C(c2ccc(Cl)cc2)C1 + COc1c(OCCCN2CCOCC2)ccc2c3n(c(=NC(=O)c4cnc(N)nc4)nc12)CCN3 has an IC50 (second compound 0.00316 µM) greater than 10000 nM, an IC50 (second compound 0.01 µM) greater than 10000 nM and an IC50 (second compound 0.0316 µM) of less than 31.6 nM. For the same compound, the IC50 (second compound 0.1 µM) was less than 31.6 nM, the IC50 (second compound 0.316 µM) was less than 31.6 nM and the IC50 (second compound 1 µM) was less than 31.6 nM. For the same compound, the viability, T/C [1] was 86.9%, the viability, T/C [2] was 84.3% and the viability, T/C (second compound 0.00316 µM, first compound 0.316 µM) was 77.5%. It also gave a viability, T/C (second compound 0.00316 µM, first compound 1 µM) of 83.7%, a viability, T/C (second compound 0.00316 µM, first compound 3.16 µM) of 82.7% and a viability, T/C (second compound 0.00316 µM, first compound 10 µM) of 110%. For the same compound, the viability, T/C [3] was 68%, the viability, T/C [4] was 67.9% and the viability, T/C (second compound 0.01 µM, first compound 0.316 µM) was 66.5%. It also gave a viability, T/C (second compound 0.01 µM, first compound 1 µM) of 68.5%, a viability, T/C (second compound 0.01 µM, first compound 3.16 µM) of 66.1% and a viability, T/C (second compound 0.01 µM, first compound 10 µM) of 58.2%. It also gave a viability, T/C [5] of 32.3%, a viability, T/C [6] of 35.8% and a viability, T/C (second compound 0.0316 µM, first compound 0.316 µM) of 40.5%. The viability, T/C (second compound 0.0316 µM, first compound 1 µM) was 39.1%, the viability, T/C (second compound 0.0316 µM, first compound 3.16 µM) was 35.3% and the viability, T/C (second compound 0.0316 µM, first compound 10 µM) was 35.5%. For the same compound, the viability, T/C [7] was 27.5%, the viability, T/C [8] was 15.1% and the viability, T/C (second compound 0.1 µM, first compound 0.316 µM) was 17%. For the same compound, the viability, T/C (second compound 0.1 µM, first compound 1 µM) was 17.8%, the viability, T/C (second compound 0.1 µM, first compound 3.16 µM) was 15.2% and the viability, T/C (second compound 0.1 µM, first compound 10 µM) was 13.1%. It also gave a viability, T/C [9] of 6.5%, a viability, T/C [10] of 4.66% and a viability, T/C (second compound 0.316 µM, first compound 0.316 µM) of 5.31%. For the same compound, the viability, T/C (second compound 0.316 µM, first compound 1 µM) was 5.04%, the viability, T/C (second compound 0.316 µM, first compound 3.16 µM) was 4.63% and the viability, T/C (second compound 0.316 µM, first compound 10 µM) was 4.02%. For the same compound, the viability, T/C [11] was 3.29%, the viability, T/C [12] was 2.86% and the viability, T/C (second compound 1 µM, first compound 0.316 µM) was 2.77%. For the same compound, the viability, T/C (second compound 1 µM, first compound 1 µM) was 3.15%, the viability, T/C (second compound 1 µM, first compound 3.16 µM) was 2.53% and the viability, T/C (second compound 1 µM, first compound 10 µM) was 2.82%.

Reference: PubChem BioAssay AID1963973 (Molecular Pharmacology Branch, DTP, NCI, 2024)
